According to article PMC12397098, “3-Monothiopomalidomide, a new immunomodulatory imide drug (IMiD), blunts inflammation and mitigates ischemic stroke in the rat” (GeroScience, 2025):

Experiment: 3-MP nanosuspension time-dependent stability (LC-MS)
Assay type: physicochemical
Experimental: Thalidomide, pomalidomide, and most related analogues have poor aqueous solubility. As a consequence, to aid biological evaluation, a 3-MP nanosuspension was prepared in line with our prior study. Specifically, the drug was mixed in an aqueous solution (Tween 80/water) and vortexed for 10 min. The coarse drug suspension was then placed in Eppendorf microtubes containing approximately 0.4 g of 0.1–0.2 mm yttrium-stabilized zirconia-silica beads (Silibeads® Typ ZY Sigmund Lindner, Germany). These were vortexed twice, at 3000 rpm for 45 min, using a beads-milling cell disruptor (Disruptor Genie®, Scientific Industries, USA). […] To evaluate the stability of the 3-MP nanosuspension, a vial (241 μM, 4 °C) was time-dependently sampled over a 98-day period, and the drug was quantified by LC–MS (see Supplementary information). […]
Nanoformulation LC/MS Assays: A rudimentary assay was devised to assess the relative stability of nanoformulated 3-MP. In short, a sample of nanoformulated 3-MP was monitored for degradation until, roughly, 10% of the original material was lost due to hydrolysis and other such factors. […] These samples were immediately analyzed. […] The areas of the ensuing UV peaks detected at 254nm served as the basis for analysis, and the stock nanoformulation was monitored as a function of derivation from the 3-MP nanoformulation t=0 area (defined as “100% Area Percent” in the initial trace). […]

With `Nc1cccc2c1C(=S)N(C1CCC(=O)NC1=O)C2=O` (centres unmarked) [3-MP, 3-Monothiopomalidomide] the “area of the 3-MP peak, relative intensity” value (nanoformulated 3-MP stock stored in the dark at 4 °C, t=98 days, UV 254 nm, relative to t=0) was “below 90%” and the “stability of 3-MP nanosuspension” value (nanosuspension in Tween-80/water, 241 μM, 4 °C, 98-day period, LC–MS/MS) was “time-dependently stable”.
